Laboratory results taken from patent publication US20100004333A1, “COMPOSITIONS AND METHODS FOR TREATING CARDIOVASCULAR DISORDERS” (priority 2004, published 2010).

What was measured:
[1] = system: New Zealand White rabbits; test: Rabbit aortic balloon-injury model with heme oxygenase blocked by tin protoporphyrin; format: in vivo; conditions: plus tin protoporphyrin 7.5 mg/kg i.p. every other day; for Ability to inhibit intimal thickening when heme oxygenase is blocked: nine weeks, FIG. 19a; for Ability to promote re-endothelialization when heme oxygenase is blocked: FIG. 19b; for Ability to inhibit vascular smooth muscle cell proliferation when heme oxygenase is blocked: FIG. 19c
Method: Inhibition of heme oxygenase activity. Three groups of male New Zealand White rabbits (n=6 per group) that were fed 100 g per day of normal chow±1% probucol or 0.02% DTBP (wt/wt) received intraperitoneal injection of tin protoporphyrin (SnPP, Frontier Scientific, 7.5 mg/kg) every other day as described in American Journal of Physiology, Heart and Circulatory Physiology 2000; 278:H623-H632 for the entire nine week duration of the experiment, with balloon injury at the end of week three and lesion assessment after a further six weeks.

[2] = system: aortic rings from rabbits; format: cell-based, New Zealand White rabbits; conditions: for Protection of aortic rings from HOCl-induced loss of response to ACh: 10 min pre-incubation with 10, 25 or 100 μM, FIG. 7
Method: All other reagents were of the highest quality available. Buffers were routinely filtered, argon-flushed and stored at 4° C. prior to use. Solutions of HOCl were prepared freshly before use by diluting reagent HOCl (Aldrich) into phosphate buffer (250 mM, pH 7.0) and standardizing with ε235 nm˜100 M^−1cm^−1 (hypochlorous acid) and ε290 nm˜300 M^−1cm^−1 (hypochlorite), as described in Journal of Physical Chemistry 1966, 70:3798-3805. Animals: New Zealand White rabbits (2.5-3 kg) were obtained from a commercial farm (Wauchope, NSW Australia) and housed individually for the entire study period. […] Feed and water were provided ad libitum for a period of 4 weeks judged to be sufficient time for circulating drug levels to reach a maximum (data not shown). […] The local ethics committee approved the study. Vascular reactivity: Perfused rabbit aortas were harvested and vascular reactivity studies performed as described in Circulation 2003, 107:2031-2036. Briefly, within 2 h of isolation, ring segments ˜5 mm in length were mounted in a myobath system (World Precision Instruments, Sarasota, Fla.) containing 20 mL of Krebs solution aerated at 37° C. with 5% CO2(g), and the dilatory response of half maximally norepinephrine pre-constricted rings to incremental doses of ACh (10^−9-10^−5 mol/L) determined. Where indicated, reagent HOCl (final concentration 400 μM) was added to the Krebs solution and the rings incubated for 5 min prior to thorough washing, pre-constriction and assessment of vessel relaxation. In some studies rings were incubated with probucol or DTBP for 10 min, washed thoroughly and then exposed to HOCl prior to assessing endothelium-dependent relaxation. A maximum of three consecutive sequences of constriction/relaxation were performed for each ring. […] Probucol oxidation studies: Probucol is a highly lipophilic compound (partition coefficient between octanol and water=[…]) that readily distributes into lipoproteins. […] The aqueous phase was analyzed for the content of sulfate anion (SO4^2−) by ion exchange chromatography (see below). Analytical analyses: Probucol, DTBP, BP and DPQ were analyzed by gradient reversed-phase HPLC and quantified by peak area comparison with authentic standards. […] Other oxidation products resolved by this HPLC system were also quantified by peak area comparison, using analytically pure samples obtained from semi-preparative (LC-18, 20 mm×25 cm, 5 μm) fractionation of the reaction mixture. Isolated samples were dried under vacuum, re-dissolved to a known concentration and assessed for purity by analytical HPLC (LC-18, 4.6 mm×25 cm, 5 μm) in combination with mass spectrometry (see below). […]

[3] = system: New Zealand White rabbits; test: Re-endothelialization and vascular reactivity after aortic balloon injury in rabbits; format: in vivo; conditions: for Endothelium-dependent relaxation (acetylcholine) / Tissue content of cGMP in response to acetylcholine: aortic rings six weeks after injury; for Endothelium-dependent relaxation (acetylcholine): FIG. 15c; for Tissue content of cGMP in response to acetylcholine: FIG. 15d; for Regeneration of endothelium (length covered by CD31+ cells) / Intima-to-media ratio at CD31-positive sites: six weeks after injury; for Regeneration of endothelium (length covered by CD31+ cells): FIG. 15b; for Intima-to-media ratio at CD31-positive sites: not shown
[4] = Oxidation of probucol or DTBP in hexane by 1e- and 2e-oxidants (HPLC, ion exchange chromatography); format: physicochemical; conditions: for Depletion: compound 1 mM in hexane, 60 min, 37° C.; for SO4^2− in aqueous phase of reaction mixture: oxidized with 5-mol equivalent HOCl, antioxidant-free mixture 58±5 nmol
Method: All other reagents were of the highest quality available. Buffers were routinely filtered, argon-flushed and stored at 4° C. prior to use. Solutions of HOCl were prepared freshly before use by diluting reagent HOCl (Aldrich) into phosphate buffer (250 mM, pH 7.0) and standardizing with ε235 nm˜100 M^−1cm^−1 (hypochlorous acid) and ε290 nm˜300 M^−1cm^−1 (hypochlorite), as described in Journal of Physical Chemistry 1966, 70:3798-3805. Animals: New Zealand White rabbits (2.5-3 kg) were obtained from a commercial farm (Wauchope, NSW Australia) and housed individually for the entire study period. […] Feed and water were provided ad libitum for a period of 4 weeks judged to be sufficient time for circulating drug levels to reach a maximum (data not shown). […] The local ethics committee approved the study. Vascular reactivity: Perfused rabbit aortas were harvested and vascular reactivity studies performed as described in Circulation 2003, 107:2031-2036. Briefly, within 2 h of isolation, ring segments ˜5 mm in length were mounted in a myobath system (World Precision Instruments, Sarasota, Fla.) containing 20 mL of Krebs solution aerated at 37° C. with 5% CO2(g), and the dilatory response of half maximally norepinephrine pre-constricted rings to incremental doses of ACh (10^−9-10^−5 mol/L) determined. Where indicated, reagent HOCl (final concentration 400 μM) was added to the Krebs solution and the rings incubated for 5 min prior to thorough washing, pre-constriction and assessment of vessel relaxation. In some studies rings were incubated with probucol or DTBP for 10 min, washed thoroughly and then exposed to HOCl prior to assessing endothelium-dependent relaxation. A maximum of three consecutive sequences of constriction/relaxation were performed for each ring. Preparation of Aortic Homogenates: Aortic Rings Used in the Vascular Function Studies were removed and immediately cut into small pieces, frozen in liquid nitrogen, and then pulverized and homogenized as described. An aliquot (50 μL) of homogenate was removed for protein determination (BCA assay, Sigma) and the remainder extracted into methanol/hexane (5:1, v/v), the resulting hexane fraction dried and the residue suspended in isopropanol for analysis of probucol and its oxidation products. For cGMP determinations, aortic segments were treated with vehicle (control) or HOCl (400 μM) before addition of 1 μM ACh in the presence of 200 μM 3-isobutyl-1-methylxanthine and measurement of cGMP in the homogenate using a kit (Cayman Chemical, Ann Arbor, Mich.). Probucol oxidation studies: Probucol is a highly lipophilic compound (partition coefficient between octanol and water=[…]) that readily distributes into lipoproteins. To mimic the biological situation, oxidation reactions were therefore performed with probucol (or DTBP) dissolved in hexane (2 mL) to which aliquots of HOCl were added to give the final concentrations indicated. The heterogeneous mixtures were shaken vigorously at 37° C. for 60 min, then placed on ice after adding 1 mL water, the hexane phase removed, dried under vacuum and resuspended in isopropanol (200 μL) for HPLC analyses (see below). The aqueous phase was analyzed for the content of sulfate anion (SO4^2−) by ion exchange chromatography (see below). Analytical analyses: Probucol, DTBP, BP and DPQ were analyzed by gradient reversed-phase HPLC and quantified by peak area comparison with authentic standards. Under the conditions used, BP, DTBP, probucol and DPQ eluted at 12.5, 19.2, 20.8 and 28.4 min, respectively. Other oxidation products resolved by this HPLC system were also quantified by peak area comparison, using analytically pure samples obtained from semi-preparative (LC-18, 20 mm×25 cm, 5 μm) fractionation of the reaction mixture. Isolated samples were dried under vacuum, re-dissolved to a known concentration and assessed for purity by analytical HPLC (LC-18, 4.6 mm×25 cm, 5 μm) in combination with mass spectrometry (see below). […]

[5] = Stopped-flow kinetics of reaction with HOCl in 70% aqueous ethanol; format: physicochemical; conditions: 70% EtOH, 25° C.
[6] = Total aortic drug concentration in apoE−/− mice, 5 months; format: in vivo
Excerpt: ApoE−/− mouse model. Four groups of male apoE−/− mice (8-10 weeks, Animal Resources Centre, Perth, Australia) were fed a high fat diet based on Harlan Teklad diet TD88137±1% (wt/wt) probucol (96% purity, a gift from AstraZeneca, Sweden), 0.02% DTBP, or 0.02% BP (Polysciences, Warrington, Pa.) for 5 months. Tissue harvesting and analyses were done as described in Examples 1 and 3, using 15 and 10 mice of each group for biochemical and histological analyses, respectively. Histology and immunohistochemistry. Aortic lesion assessment was carried out at four sites (sinus, arch, thoracic and abdominal aorta) as described in Example 1. Immediately adjacent sections were employed for immunohistochemistry, using Mac-3 (macrophages, dilution 1:200, DAKO), PCNA (cell proliferation, dilution 1:500, DAKO) and anti-rat HO-1 monoclonal antibody (dilution 1:50, Santa Cruz) with avidin-biotin-horseradish peroxidase for signal detection (Vectorstain Elite ABC Kit, Vector Laboratories). Apoptosis was assessed using the TUNEL assay kit (Roche) according to the manufacture's instructions. Digital images were taken for quantitative morphometric analysis. Mac-3^+ areas were determined using Adobe Photoshop V6.0 by tracing. Total cell profiles, TUNEL^+ and PCNA^+ cells were counted manually at high magnification (40× objective). A single operator using coded samples performed all analyses blinded. Heme oxygenase. Heme oxygenase activity was determined in microsomes prepared from homogenized aortic tissue and assessed by HPLC as described in Circulation 2004, 110: 1855-1860. Statistics. All data are expressed as mean±SEM. One-way ANOVA and the student-Newman-Keul's test were used to evaluate differences between groups, with P<0.05 considered significant.

Structure (SMILES) | Ability to inhibit intimal thickening when heme oxygenase is blocked [1] | Ability to promote re-endothelialization when heme oxygenase is blocked [1] | Ability to inhibit vascular smooth muscle cell proliferation when heme oxygenase is blocked [1] | Protection of aortic rings from HOCl-induced loss of response to ACh ([2]; washed, then 400 μM HOCl) | Endothelium-dependent relaxation (acetylcholine) [3] | Tissue content of cGMP in response to acetylcholine [3] | Regeneration of endothelium (length covered by CD31+ cells) [3] | Intima-to-media ratio at CD31-positive sites [3] | Depletion ([4]; oxidant AAPH 5 mM) | Depletion ([4]; oxidant HOCl 5 mM, air) | SO4^2− in aqueous phase of reaction mixture [4] | Rate constant k for oxidation by HOCl (single rate-determining process) [5] | Total aortic drug concentration ([6]; male, apoE−/−, mouse, in vivo, 5 months) | Bioavailability relative to probucol ([6]; mouse, in vivo) | Concentration at which full protection from HOCl-induced loss of response to ACh was seen ([2]; 10 min pre-incubation, washed, then 400 μM HOCl) | Tissue cGMP in response to ACh ([2]; rings pre-treated with 100 μM, FIG. 7B) | Rate constant k1 for oxidation by HOCl (rapid phase of DPQ accumulation) [5] | Rate constant k2 for oxidation by HOCl (slow phase of DPQ accumulation) [5] | Total aortic drug concentration ([6]; apoE−/− mice, high fat diet 5 months, 1% probucol, 0.02% DTBP, 0.02% BP)
CC(C)(C)c1cc(SSc2cc(C(C)(C)C)c(O)c(C(C)(C)C)c2)cc(C(C)(C)C)c1O [DTBP, 4,4′-dithiobis(2,6-di-tert-butyl-phenol)] | completely prevented | completely prevented | completely prevented | protected aortic rings from HOCl-induced dysfunction when added in vitro | enhanced | enhanced | significantly enhanced | significantly decreased | 0 ± 0% | 96 ± 3% | 204 ± 43 nmol | 0.7±0.1×10^2 M^−1 s^−1 | 7.1±1.4 nmol/mg protein | clearly superior bioavailability compared to probucol |  |  |  |  | 
CC(C)(Sc1cc(C(C)(C)C)c(O)c(C(C)(C)C)c1)Sc1cc(C(C)(C)C)c(O)c(C(C)(C)C)c1 [probucol] | completely prevented | completely prevented | completely prevented | protected the vessels from HOCl-induced loss of response to ACh in a concentration dependent manner | enhanced | enhanced | significantly enhanced | significantly decreased | 0 ± 0% | > 90% | 139 ± 14 nmol |  |  |  | 100 µM | increased tissue content of cGMP | 2.7±0.3×10^2 M^−1 s^−1 | 0.7±0.2×10^2 M^−1 s^−1 | 21.8±8.4 nmol/mg protein
